In experiment [1] the target is Receptor tyrosine-protein kinase erbB-3 (Homo sapiens) (UniProt P21860). Nature of the experiment: Selectivity interaction (KinomeScan (DiscoverX)) EUB0000092b ERBB3. As to conditions: at 10 µM.
The target in experiment [2] is BMP-2-inducible protein kinase (Homo sapiens) (UniProt Q9NSY1). Kind of experiment: Selectivity interaction (KinomeScan (DiscoverX)) EUB0000655a BMP2K. The note with it: at 10 µM.
Experiment [3] deals with Fibroblast growth factor receptor 2 (Homo sapiens) (UniProt P21802). Kind of experiment: Selectivity interaction (KinomeScan (DiscoverX)) EUB0000655a FGFR2. As to conditions: at 10 µM.
In experiment [4] the target is T1, Cyclin-G-associated kinase (Homo sapiens) (UniProt O14976).
T1 sequence (whole entry): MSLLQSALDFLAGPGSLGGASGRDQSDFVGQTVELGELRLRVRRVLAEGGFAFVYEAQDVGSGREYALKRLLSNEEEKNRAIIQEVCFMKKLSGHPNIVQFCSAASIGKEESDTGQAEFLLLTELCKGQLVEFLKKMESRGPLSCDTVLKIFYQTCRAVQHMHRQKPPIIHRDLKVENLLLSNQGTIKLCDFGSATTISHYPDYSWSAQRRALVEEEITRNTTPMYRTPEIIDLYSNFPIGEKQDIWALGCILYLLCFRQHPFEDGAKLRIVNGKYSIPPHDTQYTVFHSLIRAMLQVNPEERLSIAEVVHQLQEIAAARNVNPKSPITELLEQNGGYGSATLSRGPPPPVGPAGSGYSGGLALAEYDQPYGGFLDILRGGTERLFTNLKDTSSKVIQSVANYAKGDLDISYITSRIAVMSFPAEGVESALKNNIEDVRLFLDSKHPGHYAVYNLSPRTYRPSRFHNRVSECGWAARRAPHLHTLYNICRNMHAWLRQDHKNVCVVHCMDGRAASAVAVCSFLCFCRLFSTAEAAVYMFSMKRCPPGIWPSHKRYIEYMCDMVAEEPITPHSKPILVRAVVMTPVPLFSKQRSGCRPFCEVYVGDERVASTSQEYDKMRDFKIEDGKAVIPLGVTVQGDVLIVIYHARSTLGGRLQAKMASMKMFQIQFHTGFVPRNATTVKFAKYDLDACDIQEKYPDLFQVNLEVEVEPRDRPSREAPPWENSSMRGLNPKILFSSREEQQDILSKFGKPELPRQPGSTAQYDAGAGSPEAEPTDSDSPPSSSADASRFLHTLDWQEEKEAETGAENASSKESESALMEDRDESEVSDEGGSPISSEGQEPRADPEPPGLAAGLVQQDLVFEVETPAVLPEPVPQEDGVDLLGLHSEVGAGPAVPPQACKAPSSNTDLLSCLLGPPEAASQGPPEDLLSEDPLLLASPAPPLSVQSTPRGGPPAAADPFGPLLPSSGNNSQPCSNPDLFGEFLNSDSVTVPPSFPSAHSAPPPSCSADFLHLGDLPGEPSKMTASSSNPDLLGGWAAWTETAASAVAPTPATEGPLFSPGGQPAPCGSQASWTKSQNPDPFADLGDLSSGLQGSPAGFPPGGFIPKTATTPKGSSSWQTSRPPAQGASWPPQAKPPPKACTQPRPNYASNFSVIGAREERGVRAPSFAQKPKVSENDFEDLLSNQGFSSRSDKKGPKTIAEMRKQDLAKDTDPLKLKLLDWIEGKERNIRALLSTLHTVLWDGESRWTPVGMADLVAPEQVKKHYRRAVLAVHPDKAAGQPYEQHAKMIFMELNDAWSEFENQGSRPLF
Kind of experiment: Selectivity interaction (KinomeScan (DiscoverX)) EUB0000045b GAK.

The target of experiment [5] is T2, NUAK family SNF1-like kinase 2 (Homo sapiens) (UniProt Q9H093).
T2 sequence (whole entry): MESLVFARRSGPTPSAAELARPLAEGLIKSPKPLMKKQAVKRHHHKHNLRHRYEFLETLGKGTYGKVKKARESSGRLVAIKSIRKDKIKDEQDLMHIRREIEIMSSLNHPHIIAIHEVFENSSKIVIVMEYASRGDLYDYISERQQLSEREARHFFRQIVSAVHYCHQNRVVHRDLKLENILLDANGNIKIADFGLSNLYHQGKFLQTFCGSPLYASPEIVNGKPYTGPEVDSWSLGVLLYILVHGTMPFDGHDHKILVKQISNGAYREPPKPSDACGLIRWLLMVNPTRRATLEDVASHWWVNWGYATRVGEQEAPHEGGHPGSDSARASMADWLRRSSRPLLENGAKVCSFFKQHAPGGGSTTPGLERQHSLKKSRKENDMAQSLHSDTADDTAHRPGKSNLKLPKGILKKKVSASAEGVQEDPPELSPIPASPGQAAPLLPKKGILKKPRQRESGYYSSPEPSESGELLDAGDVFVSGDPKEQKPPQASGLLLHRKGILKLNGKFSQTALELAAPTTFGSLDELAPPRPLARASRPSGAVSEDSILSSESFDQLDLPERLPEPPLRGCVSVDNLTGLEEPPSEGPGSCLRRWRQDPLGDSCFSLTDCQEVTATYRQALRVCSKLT
Kind of experiment: Selectivity interaction (KinomeScan (DiscoverX)) EUB0000666a NUAK2. The note with it: at 10 µM.

Experiment [6] addresses Tyrosine-protein kinase CSK (Homo sapiens) (UniProt P41240). Nature of the experiment: Selectivity interaction (ActivX KiNativ screen (kinase selectivity in THP-1 cell lysates)) EUB0000639a CSK. The class given is subcellular. As to conditions: lysate.
The target of experiment [7] is Platelet-derived growth factor receptor alpha (Homo sapiens, UniProt P16234). Kind of experiment: Selectivity interaction (Kinase panel (Invitrogen)) EUB0000639a PDGFRA. As to conditions: at 200 nM.
Experiment [8] addresses T3, Dual specificity mitogen-activated protein kinase kinase 3 (Homo sapiens) (UniProt P46734).
T3 sequence (whole entry): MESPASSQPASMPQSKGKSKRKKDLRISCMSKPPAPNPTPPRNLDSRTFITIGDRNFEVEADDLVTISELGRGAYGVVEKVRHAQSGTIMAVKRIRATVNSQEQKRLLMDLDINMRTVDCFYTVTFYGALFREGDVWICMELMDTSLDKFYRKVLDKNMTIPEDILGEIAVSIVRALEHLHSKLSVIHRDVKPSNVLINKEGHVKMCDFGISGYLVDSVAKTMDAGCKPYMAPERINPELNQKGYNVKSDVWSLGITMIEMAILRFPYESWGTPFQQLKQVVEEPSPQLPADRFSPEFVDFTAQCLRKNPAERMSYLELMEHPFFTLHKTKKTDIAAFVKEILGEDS
Kind of experiment: Selectivity interaction (Kinase panel (KiNativ target engagement assay in Jurkat cells)) EUB0001635a MAP2K3. The class given is cell-based. The note with it: at 1 µM.

Experiment [9] concerns the target Ribosomal protein S6 kinase alpha-1 (Homo sapiens, UniProt Q15418). Nature of the experiment: Selectivity interaction (KinomeScan (DiscoverX)) EUB0000618a RPS6KA1. The note with it: at 10 µM.

SMILES strings stand for the structures.

Chain of Tyrosine-protein kinase CSK (Homo sapiens) (P41240 2-450 limits assumed): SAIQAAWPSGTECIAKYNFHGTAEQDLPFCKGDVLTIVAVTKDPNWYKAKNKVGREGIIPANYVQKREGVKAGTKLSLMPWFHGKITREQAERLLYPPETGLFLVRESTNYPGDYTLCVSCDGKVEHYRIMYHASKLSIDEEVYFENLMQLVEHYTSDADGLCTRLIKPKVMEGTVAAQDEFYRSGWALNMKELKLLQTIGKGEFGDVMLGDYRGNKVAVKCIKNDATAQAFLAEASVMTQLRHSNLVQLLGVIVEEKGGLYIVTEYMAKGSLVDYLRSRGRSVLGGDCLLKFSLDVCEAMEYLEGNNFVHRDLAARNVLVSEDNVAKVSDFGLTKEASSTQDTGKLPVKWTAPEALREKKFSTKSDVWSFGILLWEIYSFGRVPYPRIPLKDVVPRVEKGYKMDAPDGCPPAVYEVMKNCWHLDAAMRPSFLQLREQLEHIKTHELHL
Chain of Ribosomal protein S6 kinase alpha-1 (Q15418 whole entry): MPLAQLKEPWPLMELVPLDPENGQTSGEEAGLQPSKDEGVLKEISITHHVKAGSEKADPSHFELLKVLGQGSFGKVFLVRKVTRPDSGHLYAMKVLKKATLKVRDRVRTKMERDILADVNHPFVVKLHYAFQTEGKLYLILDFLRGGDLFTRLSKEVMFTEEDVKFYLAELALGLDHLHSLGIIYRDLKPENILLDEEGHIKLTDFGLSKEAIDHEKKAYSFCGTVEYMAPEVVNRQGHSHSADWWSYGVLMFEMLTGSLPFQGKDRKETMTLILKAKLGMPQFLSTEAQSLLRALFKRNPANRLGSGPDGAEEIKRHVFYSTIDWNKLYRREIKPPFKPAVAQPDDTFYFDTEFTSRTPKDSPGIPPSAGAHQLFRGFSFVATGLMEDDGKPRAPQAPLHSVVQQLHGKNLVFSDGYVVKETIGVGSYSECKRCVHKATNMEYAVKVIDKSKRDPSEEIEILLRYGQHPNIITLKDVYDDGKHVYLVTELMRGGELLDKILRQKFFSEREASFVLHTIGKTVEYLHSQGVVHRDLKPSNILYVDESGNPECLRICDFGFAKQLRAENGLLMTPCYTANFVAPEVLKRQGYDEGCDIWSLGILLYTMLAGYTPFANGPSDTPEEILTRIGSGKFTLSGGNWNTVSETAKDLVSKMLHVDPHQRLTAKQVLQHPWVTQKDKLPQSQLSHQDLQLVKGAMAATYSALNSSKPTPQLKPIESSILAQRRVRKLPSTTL
Chain of Receptor tyrosine-protein kinase erbB-3 (Homo sapiens) (P21860 whole entry): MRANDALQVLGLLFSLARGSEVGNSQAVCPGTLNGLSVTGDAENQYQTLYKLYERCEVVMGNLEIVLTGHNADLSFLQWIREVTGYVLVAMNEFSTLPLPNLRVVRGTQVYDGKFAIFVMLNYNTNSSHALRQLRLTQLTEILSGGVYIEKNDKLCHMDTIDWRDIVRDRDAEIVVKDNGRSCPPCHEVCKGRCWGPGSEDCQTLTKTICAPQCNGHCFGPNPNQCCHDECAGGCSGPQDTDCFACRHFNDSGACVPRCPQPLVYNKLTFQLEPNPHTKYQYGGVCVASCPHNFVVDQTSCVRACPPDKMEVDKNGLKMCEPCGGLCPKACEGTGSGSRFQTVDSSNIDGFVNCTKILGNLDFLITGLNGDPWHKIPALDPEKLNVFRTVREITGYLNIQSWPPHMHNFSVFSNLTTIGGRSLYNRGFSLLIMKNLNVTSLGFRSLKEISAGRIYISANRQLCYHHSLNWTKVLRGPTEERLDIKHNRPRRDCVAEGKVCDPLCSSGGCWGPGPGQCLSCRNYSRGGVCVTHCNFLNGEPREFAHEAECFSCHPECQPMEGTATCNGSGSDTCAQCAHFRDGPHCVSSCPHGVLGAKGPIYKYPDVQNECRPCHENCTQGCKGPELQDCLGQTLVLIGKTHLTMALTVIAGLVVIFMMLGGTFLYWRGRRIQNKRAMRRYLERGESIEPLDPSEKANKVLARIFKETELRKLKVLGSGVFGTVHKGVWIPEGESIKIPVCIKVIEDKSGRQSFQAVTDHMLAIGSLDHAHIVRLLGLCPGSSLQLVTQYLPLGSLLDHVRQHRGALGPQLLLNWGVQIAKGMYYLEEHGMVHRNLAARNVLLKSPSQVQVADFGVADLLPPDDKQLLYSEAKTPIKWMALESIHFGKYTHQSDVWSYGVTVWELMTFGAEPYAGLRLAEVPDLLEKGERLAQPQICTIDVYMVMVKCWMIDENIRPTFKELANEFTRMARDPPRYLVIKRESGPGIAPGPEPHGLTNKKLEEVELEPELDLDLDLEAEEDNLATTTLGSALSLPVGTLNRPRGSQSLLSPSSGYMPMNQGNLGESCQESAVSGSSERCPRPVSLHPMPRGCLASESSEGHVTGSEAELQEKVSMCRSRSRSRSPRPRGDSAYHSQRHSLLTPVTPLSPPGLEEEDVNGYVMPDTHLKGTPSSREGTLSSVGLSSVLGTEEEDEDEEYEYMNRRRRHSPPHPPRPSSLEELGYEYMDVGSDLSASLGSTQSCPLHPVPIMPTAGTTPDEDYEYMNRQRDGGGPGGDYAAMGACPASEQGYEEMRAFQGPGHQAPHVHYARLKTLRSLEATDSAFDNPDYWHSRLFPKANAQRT
Chain of Platelet-derived growth factor receptor alpha (P16234 whole entry): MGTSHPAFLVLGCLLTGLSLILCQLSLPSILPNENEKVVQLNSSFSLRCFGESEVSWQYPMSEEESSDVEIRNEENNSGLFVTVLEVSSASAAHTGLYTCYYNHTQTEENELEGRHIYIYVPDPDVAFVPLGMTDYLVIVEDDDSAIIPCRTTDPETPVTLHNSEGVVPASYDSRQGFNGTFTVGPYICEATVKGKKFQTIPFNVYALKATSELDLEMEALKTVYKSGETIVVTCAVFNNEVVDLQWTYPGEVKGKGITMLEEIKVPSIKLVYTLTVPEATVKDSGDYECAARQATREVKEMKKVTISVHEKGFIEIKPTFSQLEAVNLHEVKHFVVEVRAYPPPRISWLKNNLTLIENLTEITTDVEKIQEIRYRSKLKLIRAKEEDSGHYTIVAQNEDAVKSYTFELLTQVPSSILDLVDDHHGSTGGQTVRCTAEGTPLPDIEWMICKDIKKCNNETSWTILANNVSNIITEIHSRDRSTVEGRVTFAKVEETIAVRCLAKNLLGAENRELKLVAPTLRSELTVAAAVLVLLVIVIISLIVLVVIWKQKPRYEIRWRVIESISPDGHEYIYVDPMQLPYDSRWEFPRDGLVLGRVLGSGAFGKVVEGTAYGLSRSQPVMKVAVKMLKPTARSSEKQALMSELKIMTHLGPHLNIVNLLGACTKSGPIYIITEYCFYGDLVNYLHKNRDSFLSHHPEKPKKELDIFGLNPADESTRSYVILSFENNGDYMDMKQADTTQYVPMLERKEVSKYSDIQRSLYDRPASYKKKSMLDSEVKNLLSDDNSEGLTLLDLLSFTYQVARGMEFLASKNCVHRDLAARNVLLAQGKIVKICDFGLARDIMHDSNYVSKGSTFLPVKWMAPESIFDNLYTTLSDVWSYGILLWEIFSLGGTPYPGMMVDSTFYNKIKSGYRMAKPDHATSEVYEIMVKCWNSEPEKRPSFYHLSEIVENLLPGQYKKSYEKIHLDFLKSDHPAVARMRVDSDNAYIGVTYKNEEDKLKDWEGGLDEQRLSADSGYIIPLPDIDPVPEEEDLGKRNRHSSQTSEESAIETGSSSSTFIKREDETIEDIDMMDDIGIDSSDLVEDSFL
Chain of BMP-2-inducible protein kinase (Homo sapiens) (Q9NSY1 whole entry, looked up): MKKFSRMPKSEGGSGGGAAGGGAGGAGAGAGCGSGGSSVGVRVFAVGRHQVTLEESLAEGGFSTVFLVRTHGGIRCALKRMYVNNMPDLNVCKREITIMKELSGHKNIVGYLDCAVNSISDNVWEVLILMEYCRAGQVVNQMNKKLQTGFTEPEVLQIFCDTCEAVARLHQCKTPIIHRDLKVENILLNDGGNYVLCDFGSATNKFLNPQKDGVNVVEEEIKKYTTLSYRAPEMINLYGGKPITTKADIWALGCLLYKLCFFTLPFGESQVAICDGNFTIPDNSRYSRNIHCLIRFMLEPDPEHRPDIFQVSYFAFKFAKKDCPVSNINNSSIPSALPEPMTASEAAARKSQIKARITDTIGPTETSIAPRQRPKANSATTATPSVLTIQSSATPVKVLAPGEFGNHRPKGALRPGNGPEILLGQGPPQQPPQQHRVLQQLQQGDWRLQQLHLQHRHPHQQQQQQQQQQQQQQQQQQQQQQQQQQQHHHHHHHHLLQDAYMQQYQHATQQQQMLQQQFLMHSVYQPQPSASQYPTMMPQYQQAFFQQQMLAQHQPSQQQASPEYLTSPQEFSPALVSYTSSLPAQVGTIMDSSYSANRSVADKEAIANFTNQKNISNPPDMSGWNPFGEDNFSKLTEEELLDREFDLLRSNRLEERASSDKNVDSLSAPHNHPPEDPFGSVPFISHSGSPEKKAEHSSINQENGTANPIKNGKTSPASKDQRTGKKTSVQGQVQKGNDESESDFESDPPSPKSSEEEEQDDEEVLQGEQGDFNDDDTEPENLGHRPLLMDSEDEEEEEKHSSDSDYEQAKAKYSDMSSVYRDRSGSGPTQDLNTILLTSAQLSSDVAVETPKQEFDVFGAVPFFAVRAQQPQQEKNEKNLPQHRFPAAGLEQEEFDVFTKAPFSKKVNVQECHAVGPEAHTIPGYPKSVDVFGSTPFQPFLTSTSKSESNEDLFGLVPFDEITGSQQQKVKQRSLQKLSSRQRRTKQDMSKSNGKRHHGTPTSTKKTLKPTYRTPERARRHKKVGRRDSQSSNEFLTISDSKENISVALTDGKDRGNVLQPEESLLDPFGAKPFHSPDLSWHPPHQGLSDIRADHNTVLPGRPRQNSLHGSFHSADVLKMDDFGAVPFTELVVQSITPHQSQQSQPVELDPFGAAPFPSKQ

In experiment [1], `CCC(=O)N1CCN(c2ccc(-n3c(=O)ccc4cnc5ccc(-c6cnc7ccccc7c6)cc5c43)cc2C(F)(F)F)CC1` registered a % of control of 44%.

Consider `CN(C)CCOc1ccc(-c2nc(-c3ccncc3)c(-c3ccc4c(c3)CC/C4=N\O)[nH]2)cc1`, for which the % of control came to 82% in [2] and 100% in experiment [3].

Take `C=CC(=O)Nc1cc(-n2c(=O)ccc3cnc4ccc(-c5ccc(NS(C)(=O)=O)cc5)cc4c32)ccc1C`: the figures for the % of control in experiment [4] (at 1 µM) and in [4] (at 10 µM) were 74% and 23%, respectively.

In [5], `O=C(NOC[C@H](O)CO)c1ccc(F)c(F)c1Nc1ccc(I)cc1F` gave a % of control of 99%.

On to `CC[C@@H]1[C@H](F)C(=O)N[C@@H]1COc1nccc2cc(C(N)=O)c(OC)cc12` [ZIMLOVISERTIB], for which the % of inhibition in experiment [6] (at 0.01 µM) is 4.3%; in [6] (at 0.04 µM) it was -0.3%; in experiment [6] (at 0.2 µM), -3.8%; in [6] (at 1 µM), 10.3%; in experiment [6] (at 5 µM), -8.3%; in experiment [7], -0.518%.

For `C=CC(=O)Nc1ccc(C(=O)Nc2[nH]nc3c2CN(C(=O)N[C@H](CN(C)C)c2ccccc2)C3(C)C)cc1`, the % of engagement in experiment [8] (Selectivity number of off-targets 0.0, Selectivity number of targets 233.0, Source Knowledge https://www.sciencedirect.com/science/article/pii/S2451945619300674?via%3Dihub) was 8.4%; in [8] it was -7.7%.

In the case of `O[C@H]1CC[C@H](Nc2ncc3nc(Nc4c(F)cc(F)cc4F)n([C@H]4CCOC4)c3n2)CC1`, the % of control in experiment [9] was 98%.

The values above are taken from ChEMBL document CHEMBL5465560, “Selectivity Literature for EUbOPEN Chemogenomic Library” (2024).
